“Also recorded” adds a separate entry of the source.

Consider five molecules from patent US20130178454A1, “COMBINATION OF TESTOSTERONE AND ORNITHINE DECARBOXYLASE (ODC) INHIBITORS” (priority 2011, published 2013).

Data set [1] deals with older men with low or low normal testosterone levels. Conditions: testosterone versus placebo; cited from earlier work.
The conditions of data set [2]: cited from earlier work.
The next data set deals with C3H 10T1/2 cells. As to conditions: 100 nm testosterone, 0.5 μg/ml anti-Fst antibody, rFst 0.2 μg/ml; cited from earlier work.
In data set [3] the test system is ornithine decarboxylase (ODC) and polyamine pathway in the prostate. Description: Microarrays of prostate RNA from castrated mice treated with follistatin or testosterone (FIG. 8). Format: in vivo. As to conditions: microarray. An excerpt: FIG. 8A is a schematic of microarray experiments to identify testosterone-selective signalling pathways in the prostate which are not activated by follistatin (Fst), and identify genes which are follistatin sensitive and those which are testosterone sensitive. Adult male mice were either sham-castrated or castrated under ketamine-xylazine anesthesia and treated with vehicle (sham), follistatin or testosterone. RNA was extracted from the prostate and levator ani muscle and subjected to microarrays. […] Shown in the box is the region of highly differentially expressed genes between the follistatin (Fst/CX) and testosterone (Tes/CX) treated mice.
Using microarrays, the inventors elucidated the signaling pathways that are differentially activated in the skeletal muscle and prostate by each of testosterone and follistatin, and assessed the pathways that are specifically activated in the prostate by testosterone, but were not follistatin (FIG. 8A-8B). The inventors determined that testosterone and follstatin both activate common signaling pathways that mediate their anabolic effects on the skeletal muscle, and specifically assessed if testosterone activates one or more unique signaling pathways in the prostate that are not activated by follistatin.

Data set [4] deals with Wnt target genes in 3T3-L1 cells. As to conditions: 3T3-L1 cells incubated with 100 nM testosterone; cited from earlier work.
For another data set, the system named is castrated C57BL/6 mice. Description: Prostate and levator ani muscle weights in castrated mice treated with testosterone or testosterone plus DFMO (FIG. 9). Format: in vivo. From the text:
Shown is a histogram showing prostate weights and levator ani muscle weights in vehicle-treated intact C57BL/6 mice, and castrated mice treated with vehicle, testosterone, or testosterone plus an ODC inhibitor DFMO.

The next data set concerns castrated (CX) mice. Put plainly: Histologic sections of the prostate in castrated mice (FIG. 7A). It is filed as in vivo.
Data set [5] deals with PCNA expression in the prostate epithelial cells. Description: PCNA expression in prostate epithelial cells (FIG. 7C). Conditions: follistatin 1 ng/ml and 5 ng/ml, DHT 10 nM. Format: cell-based.
The next data set has as its target T1, ornithine decarboxylase (Homo sapiens, UniProt P11926).
T1 sequence (P11926 1-461): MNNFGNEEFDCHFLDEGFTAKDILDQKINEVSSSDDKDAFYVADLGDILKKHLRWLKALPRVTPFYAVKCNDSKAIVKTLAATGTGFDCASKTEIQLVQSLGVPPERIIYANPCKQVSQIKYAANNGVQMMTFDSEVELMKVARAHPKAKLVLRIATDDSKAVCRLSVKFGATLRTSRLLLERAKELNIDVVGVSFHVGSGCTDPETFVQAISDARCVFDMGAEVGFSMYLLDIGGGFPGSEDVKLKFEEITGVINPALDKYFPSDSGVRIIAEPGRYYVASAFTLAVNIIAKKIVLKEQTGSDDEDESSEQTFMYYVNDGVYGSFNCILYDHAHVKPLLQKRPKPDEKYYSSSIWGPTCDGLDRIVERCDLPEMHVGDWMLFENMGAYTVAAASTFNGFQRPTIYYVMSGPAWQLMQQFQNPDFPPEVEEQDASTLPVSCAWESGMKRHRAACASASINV
As to conditions: cited from earlier work.

Data set [6] has as its system carcinogen-induced cancer development. As to conditions: variety of rodent models; cited from earlier work.
In data set [7] the test system is PSA expression in the prostate epithelial cells. Description: PSA expression in prostate epithelial cells (FIG. 7B). Format: cell-based. Conditions: follistatin 1 ng/ml and 5 ng/ml, R1881 1 nM.
Another data set has as its system C57BL/6 mice. Put plainly: Systemic follistatin treatment of mice: fat mass, lean mass, muscle and bone mass (FIG. 6). Format: in vivo.
Another data set relates to LNCaP cells. Description: Proliferation of androgen-sensitive LNCaP cells in vitro. Format: cell-based.
Setting [8] is: mice in vivo, given with testosterone.

Take `C[C@]12CC[C@H]3[C@@H](CCC4=CC(=O)CC[C@@]43C)[C@@H]1CC[C@@H]2O` [testosterone, 17-β-hydroxyandrost-4-en-3-one]: in [1], the fat mass entry is given as “reduces fat mass”; the “lean body mass, muscle strength and bone mineral density” value was “improves lean body mass (LBM), a measure of muscle mass, muscle strength and bone mineral density (BMD)”. Also, in data set [2], the “testosterone circulating unbound to plasma proteins” value is recorded as “Less than 2.5%”. Further, the “myogenic differentiation of mesenchymal multipotent cells” value in the data set with C3H 10T1/2 cells is reported as “promotes myogenic differentiation; also recorded: stimulate myogenic differentiation”. Moreover, the “polyamine biosynthetic pathway / ODC gene expression in the prostate” value in data set [3] was “activated by testosterone in the prostate”. Further, the “polyamine biosynthetic pathway / ODC gene expression in the prostate” value in data set [3] (listed as Testosterone) was “upregulate several biosynthetic pathways including the polyamine biosynthetic pathway”. In addition, the “Fst, CD44 and Lef1 gene expression” value in data set [4] was “upregulation of Fst (follastin) and CD44 and Lef1 gene expression”. Further, in the data set with castrated C57BL/6 mice (castrated C57BL/6 mice), the “levator ani muscle mass (levator ani muscle weights)” value is listed as “restored prostate as well as levator ani muscle mass” and the “prostate mass (prostate weights)” value is recorded as “restored prostate as well as levator ani muscle mass”. Besides, the “prostate growth and prostate glands” value in the data set on castrated (CX) mice was “restored prostate mass and growth of prostate glands”.
In the case of `C[C@]12CCC(=O)C[C@@H]1CC[C@@H]1[C@@H]2CC[C@]2(C)[C@@H](O)CC[C@@H]12` [DHT, Dihydrotestosterone], in data set [5], the PCNA expression entry was “upregulated PCNA expression”.
In the case of `NCCCC(N)(C(=O)O)C(F)F` (racemic) [DFMO, (RS)-2,5-diamino-2-(difluoromethyl)pentanoic acid], at ornithine decarboxylase, the “inhibition of ornithine decarboxylase” value is recorded as “potent inhibitor of ornithine decarboxylase”. Besides, in the data set with castrated C57BL/6 mice (setting [8]), the “effect of the ODC inhibitor on testosterone's anabolic effect on the muscle” value is listed as “did not block testosterone's effect on the muscle; also recorded: maintaining muscle anabolic effects of testosterone” and the “effect of the ODC inhibitor on testosterone-induced prostate growth” value was “blocks testosterone's effects on the prostate; also recorded: suppresses testosterone-induced prostate growth in vivo”. Further, in [6], the carcinogen-induced cancer development result is “inhibit carcinogen-induced cancer development”.
As to `C[C@]1(O)CC[C@H]2[C@@H]3CCC4=CC(=O)CCC4=C3C=C[C@@]21C` [R1881], in data set [7], the PSA expression entry was “stimulates PSA expression”.

B1: follistatin: an endogenous protein that increases muscle mass; recombinant Fst protein (protein, UniProt P19883 30-344, looked up)
Follistatin: GNCWLRQAKNGRCQVLYKTELSKEECCSTGRLSTSWTEEDVNDNTLFKWMIFNGGAPNCIPCKETCENVDCGPGKKCRMNKKNKPRCVCAPDCSNITWKGPVCGLDGKTYRNECALLKARCKEQPELEVQYQGRCKKTCRDVFCPGSSTCVVDQTNNAYCVTCNRICPEPASSEQYLCGNDGVTYSSACHLRKATCLLGRSIGLAYEGKCIKAKSCEDIQCTGGKKCLWDFKVGRGRCSLCDELCPDSKSDEPVCASDNATYASECAMKEAACSSGVLLEVKHSGSCNSISEDTEEEEEDEDQDYSFPISSILEW
For the molecule B1, the PSA expression entry in data set [7] is listed as “nor does it up regulate PSA expression; also recorded: does not stimulate PSA expression”. Also, in the data set on C57BL/6 mice (castrated mice), the fat mass result is “reduces fat mass”; the “muscle and bone mass” value was “increases muscle and bone mass”. The “lean body mass, measured by NMR” value in the data set with C57BL/6 mice (mice, 13 weeks systemic administration of 0, 10, 30 and 100 μg recombinant follistatin) is “increased dose-dependently”. For the same molecule, the “fat mass, expressed as a percent of body weight” value in the data set on C57BL/6 mice (mice, 13 weeks systemic administration of 10, 30 and 100 μg follistatin) is reported as “fat mass is decreased”. In the data set with C3H 10T1/2 cells, the “myogenic differentiation of mesenchymal multipotent cells” value is “stimulate myogenic differentiation”. Also, the “polyamine biosynthetic pathway / ODC gene expression in the prostate” value in data set [3] is given as “not upregulated”. For the same molecule, in the data set with LNCaP cells, the “proliferation of androgen-sensitive LNCaP cells” value is “does not up stimulate the proliferation”. For the same molecule, in the data set on castrated (CX) mice, the “prostate growth and prostate glands” value is on record as “does not stimulate prostate growth; also recorded: did not stimulate prostate growth or glands”.
